Tests used:
[1] = test system: MOLT-4 cells; test: MOLT-4 cell viability, CTG assay; format: cell-based; details: Homo sapiens, MOLT-4, 48 h
Description: The MTT colorimetric assay is based on the mitochondrial reduction of tetrazolium salt by living cells. The viable cell number is proportional to the production of formazan salts, which can be read spectrophotometrically at 540 nm. The CTG luminescent assay (CellTiter GLO, Promega) is based on a reagent which lyses cells and measures total adenosine triphosphate (ATP) content. The viable cell number is proportional to the production of ATP.
MOLT-4 cells were purchased from ATCC and cultivated in RPMI 1640 supplemented with 10% heat inactivated fetal bovine serum, penicillin (100 IU/mi), streptomycin (100 μg/ml) and L-glutamine (2 mM). Cells were cultured at 37° C. in a humidified atmosphere containing 5% […].
For CTG assay, cells were seeded in 384 microwell plates (40 μL per well) and exposed to the compounds for 48 h (11-point serial dilution with 5-fold factor, triplicates). At the end of incubation time, 40 μL of CTG solution were added per well. Wells were mixed thoroughly, and plates were incubated at room temperature for 10 minutes to stabilize luminescent signals prior to reading using a luminescence reader (PHERAStar FSX Reader, BMG Labtech).
IC50, were calculated using standard four-parametric curve fitting. IC50 is defined as the compound concentration at which the MTT or CTG signal is reduced to 50% of that measured for the control. Results shown in Table 14 represent the mean of at least 2 independent experiments.

[2] = target: T1, Bcl-xL (Homo sapiens, UniProt Q07817); test: HCT116 Bcl-xL degradation, capillary-based immunoassay (WES); format: cell-based; details: HCT116, 24 h, 9-point serial dilution
T1 construct: Measured levels of Bcl-xL protein of HCT116 cells treated with the tested compounds; host or cells: HCT116
T1 sequence (Q07817 whole entry): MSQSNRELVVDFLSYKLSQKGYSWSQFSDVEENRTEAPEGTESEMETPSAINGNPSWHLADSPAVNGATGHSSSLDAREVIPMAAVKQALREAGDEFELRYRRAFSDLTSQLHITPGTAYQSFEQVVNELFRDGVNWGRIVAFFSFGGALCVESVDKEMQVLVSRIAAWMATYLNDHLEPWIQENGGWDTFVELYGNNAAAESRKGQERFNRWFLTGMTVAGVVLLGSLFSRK
Description: HCT116 cells were purchased from ATCC and cultivated in RPMI 1640 supplemented with 10% heat inactivated fetal bovine serum, penicillin (100 IU/mi), streptomycin (100 μg/ml) and L-glutamine (2 mM). Cells were cultured at 37° C. in a humidified atmosphere containing 5% CO2. Cells were seeded in 96 microwell plates, 24 h later cells were treated with compounds (2-point 10/100 nM and/or 9-point serial dilution to determine DC50; quadruplicates) during 24 h and harvested in lysis buffer containing 10 mM Hepes (pH 7.5), 150 mM KCl, 5 mM MgCl2, 1 mM EDTA, 0.4% TritonX100, protease and phosphatase inhibitors cocktails (Calbiochem).
Protein concentration in the supernatants was determined using the Pierce BCA protein assay kit (Thermo Fisher Scientific). Lysates (1.5 μg/μL) were analyzed using an automated capillary electrophoresis WES system with 2-40 kDa Wes Separation Module (25 capillary cartridges, Proteinsimple), in accordance with the manufacturer's protocols. Antibodies against the following proteins were used: Bcl-xL (#2764, Cell Signaling Technology, 1:50) and cofilin (#5175, Cell Signaling Technology, 1:1000). Signals were detected with an HRP-conjugated secondary anti-rabbit antibody (#042-206, Proteinsimple) and were quantified using Compass software (version 4.0, Proteinsimple).
Bcl-xL level was calculated by normalizing Bcl-xL values to cofilin and expressed as a percentage of the normalized value of the untreated cells. DC50 were calculated using standard four-parametric curve fitting. DC50 is defined as the compound concentration at which Bcl-xL is reduced to 50% of that measured for the control. Measured levels of Bcl-xL protein of HCT116 cells treated with the tested compounds at 2-point 10 nM/100 nM and/or 9-point for DC50 determination are shown in Table 15.

Compound	IC50 [1] [nM]	DC50 [2] [nM]
Cc1cc(N(CCCCN(C)C(=O)CCCCCCCCCCNc2cccc3c2C(=O)N(C2CCC(=O)NC2=O)C3=O)c2ccc(-c3cnn(CC45CC6(C)CC(C)(C4)CC(OCCN(C)C)(C6)C5)c3C)c(C(=O)O)n2)nnc1Nc1nc2ccccc2s1 (centres unmarked) [Example 90, 6-[[6-(1,3-benzothiazol-2-ylamino)-5-methyl-pyridazin-3-yl]-[4-[11-[[2-(2,6-dioxo-3-piperidyl)-1,3-dioxo-isoindolin-4-yl]amino]undecanoyl-methyl-amino]butyl]amino]-3-[1-[[3-[2-(dimethylamino)ethoxy]-5,7-dimethyl-1-adamantyl]methyl]-5-methyl-pyrazol-4-yl]pyridine-2-carboxylic acid]	16.8	1.33
Cc1cc(N(CCCCN(C)C(=O)CCCCCCCCNc2cccc3c2C(=O)N(C2CCC(=O)NC2=O)C3=O)c2ccc(-c3cnn(CC45CC6(C)CC(C)(C4)CC(OCCN(C)C)(C6)C5)c3C)c(C(=O)O)n2)nnc1Nc1nc2ccccc2s1 (centres unmarked) [Example 91, 6-[[6-(1,3-benzothiazol-2-ylamino)-5-methyl-pyridazin-3-yl]-[4-[9-[[2-(2,6-dioxo-3-piperidyl)-1,3-dioxo-isoindolin-4-yl]amino]nonanoyl-methyl-amino]butyl]amino]-3-[1-[[3-[2-(dimethylamino)ethoxy]-5,7-dimethyl-1-adamantyl]methyl]-5-methyl-pyrazol-4-yl]pyridine-2-carboxylic acid]	12.7	0.407
Cc1cc(N(CCCCN(C)C(=O)CCCCCCCCCNc2cccc3c2C(=O)N(C2CCC(=O)NC2=O)C3=O)c2ccc(-c3cnn(CC45CC6(C)CC(C)(C4)CC(OCCN(C)C)(C6)C5)c3C)c(C(=O)O)n2)nnc1Nc1nc2ccccc2s1 (centres unmarked) [Example 92, 6-[[6-(1,3-benzothiazol-2-ylamino)-5-methyl-pyridazin-3-yl]-[4-[10-[[2-(2,6-dioxo-3-piperidyl)-1,3-dioxo-isoindolin-4-yl]amino]decanoyl-methyl-amino]butyl]amino]-3-[1-[[3-[2-(dimethylamino)ethoxy]-5,7-dimethyl-1-adamantyl]methyl]-5-methyl-pyrazol-4-yl]pyridine-2-carboxylic acid]	14.9	0.954
Cc1cc(N(CCCCN(C)C(=O)CCCCCCCCCCCNc2cccc3c2C(=O)N(C2CCC(=O)NC2=O)C3=O)c2ccc(-c3cnn(CC45CC6(C)CC(C)(C4)CC(OCCN(C)C)(C6)C5)c3C)c(C(=O)O)n2)nnc1Nc1nc2ccccc2s1 (centres unmarked) [Example 93, 6-[[6-(1,3-benzothiazol-2-ylamino)-5-methyl-pyridazin-3-yl]-[4-[12-[[2-(2,6-dioxo-3-piperidyl)-1,3-dioxo-isoindolin-4-yl]amino]dodecanoyl-methyl-amino]butyl]amino]-3-[1-[[3-[2-(dimethylamino)ethoxy]-5,7-dimethyl-1-adamantyl]methyl]-5-methyl-pyrazol-4-yl]pyridine-2-carboxylic acid]	19.6	0.951

These reach a lower IC50 [1]. Values come first.

IC50 [1] [nM]	DC50 [2] [nM]	Compound
4.42	0.121	Cc1c(Nc2nc3ccccc3s2)nnc2c1CCCN2c1ccc(-c2cnn(CC34CC5(C)CC(C)(C3)CC(OCCN(C)CCCCCCCCCCCCC(=O)N3CCC(c6ccc7c(c6)CN(C6CCC(=O)NC6=O)C7=O)CC3)(C5)C4)c2C)c(C(=O)O)n1 (centres unmarked) [Example 78, 6-[3-(1,3-benzothiazol-2-ylamino)-4-methyl-6,7-dihydro-5H-pyrido[2,3-c]pyridazin-8-yl]-3-[1-[[3-[2-[[13-[4-[2-(2,6-dioxo-3-piperidyl)-1-oxo-isoindolin-5-yl]-1-piperidyl]-13-oxo-tridecyl]-methyl-amino]ethoxy]-5,7-dimethyl-1-adamantyl]methyl]-5-methyl-pyrazol-4-yl]pyridine-2-carboxylic acid]
4.72	4.49	Cc1ncsc1-c1ccc(CNC(=O)[C@@H]2C[C@@H](O)CN2C(=O)[C@@H](NC(=O)C2(F)CC2)C(C)(C)C)c(OCCCCCCCCCCCCCCCN(C)CCOC23CC4(C)CC(C)(CC(Cn5ncc(-c6ccc(N7CCCc8c7nnc(Nc7nc9ccccc9s7)c8C)nc6C(=O)O)c5C)(C4)C2)C3)c1 [Example 83, 6-[3-(1,3-benzothiazol-2-ylamino)-4-methyl-6,7-dihydro-5H-pyrido[2,3-c]pyridazin-8-yl]-3-[1-[[3-[2-[15-[2-[[[(2S,4R)-1-[(2S)-2-[(1-fluorocyclopropanecarbonyl)amino]-3,3-dimethyl-butanoyl]-4-hydroxy-pyrrolidine-2-carbonyl]amino]methyl]-5-(4-methylthiazol-5-yl)phenoxy]pentadecyl-methyl-amino]ethoxy]-5,7-dimethyl-1-adamantyl]methyl]-5-methyl-pyrazol-4-yl]pyridine-2-carboxylic acid]
4.36	> 316	CN[C@@H](C)C(=O)N[C@H](C(=O)N1CCC[C@H]1c1nc(C(=O)c2cccc(OCCCCCCCCCCCCN(C)CCOC34CC5(C)CC(C)(CC(Cn6ncc(-c7ccc(N8CCCc9c8nnc(Nc8nc%10ccccc%10s8)c9C)nc7C(=O)O)c6C)(C5)C3)C4)c2)cs1)C1CCCCC1 [Example 96, 6-[3-(1,3-benzothiazol-2-ylamino)-4-methyl-6,7-dihydro-5H-pyrido[2,3-c]pyridazin-8-yl]-3-[1-[[3-[2-[12-[3-[2-[(2S)-1-[(2S)-2-cyclohexyl-2-[[(2S)-2-(methylamino)propanoyl]amino]acetyl]pyrrolidin-2-yl]thiazole-4-carbonyl]phenoxy]dodecyl-methyl-amino]ethoxy]-5,7-dimethyl-1-adamantyl]methyl]-5-methyl-pyrazol-4-yl]pyridine-2-carboxylic acid]
3.76	0.356	CN[C@@H](C)C(=O)N[C@H](C(=O)N1CCC[C@H]1c1nc(C(=O)c2cccc(OCCCCCCCCN(C)CCOC34CC5(C)CC(C)(CC(Cn6ncc(-c7ccc(N8CCCc9c8nnc(Nc8nc%10ccccc%10s8)c9C)nc7C(=O)O)c6C)(C5)C3)C4)c2)cs1)C1CCCCC1 [Example 97, 6-[3-(1,3-benzothiazol-2-ylamino)-4-methyl-6,7-dihydro-5H-pyrido[2,3-c]pyridazin-8-yl]-3-[1-[[3-[2-[8-[3-[2-[(2S)-1-[(2S)-2-cyclohexyl-2-[[(2S)-2-(methylamino)propanoyl]amino]acetyl]pyrrolidin-2-yl]thiazole-4-carbonyl]phenoxy]octyl-methyl-amino]ethoxy]-5,7-dimethyl-1-adamantyl]methyl]-5-methyl-pyrazol-4-yl]pyridine-2-carboxylic acid]
4.74	0.362	CN[C@@H](C)C(=O)N[C@H](C(=O)N1CCC[C@H]1c1nc(C(=O)c2cccc(OCCCCCCCCCCN(C)CCOC34CC5(C)CC(C)(CC(Cn6ncc(-c7ccc(N8CCCc9c8nnc(Nc8nc%10ccccc%10s8)c9C)nc7C(=O)O)c6C)(C5)C3)C4)c2)cs1)C1CCCCC1 [Example 98, 6-[3-(1,3-benzothiazol-2-ylamino)-4-methyl-6,7-dihydro-5H-pyrido[2,3-c]pyridazin-8-yl]-3-[1-[[3-[2-[10-[3-[2-[(2S)-1-[(2S)-2-cyclohexyl-2-[[(2S)-2-(methylamino)propanoyl]amino]acetyl]pyrrolidin-2-yl]thiazole-4-carbonyl]phenoxy]decyl-methyl-amino]ethoxy]-5,7-dimethyl-1-adamantyl]methyl]-5-methyl-pyrazol-4-yl]pyridine-2-carboxylic acid]
7.68	0.612	CN[C@@H](C)C(=O)N[C@H](C(=O)N1CCC[C@H]1c1nc(C(=O)c2cccc(OCCN(C)CCOC34CC5(C)CC(C)(CC(Cn6ncc(-c7ccc(N8CCCc9c8nnc(Nc8nc%10ccccc%10s8)c9C)nc7C(=O)O)c6C)(C5)C3)C4)c2)cs1)C1CCCCC1 [Example 101, 6-[3-(1,3-benzothiazol-2-ylamino)-4-methyl-6,7-dihydro-5H-pyrido[2,3-c]pyridazin-8-yl]-3-[1-[[3-[2-[2-[3-[2-[(2S)-1-[(2S)-2-cyclohexyl-2-[[(2S)-2-(methylamino)propanoyl]amino]acetyl]pyrrolidin-2-yl]thiazole-4-carbonyl]phenoxy]ethyl-methyl-amino]ethoxy]-5,7-dimethyl-1-adamantyl]methyl]-5-methyl-pyrazol-4-yl]pyridine-2-carboxylic acid]
